Source: patent US10149876B2, “Tripterygium wilfordii extracts to overcome chemotherapy resistance” (WESTERN UNIVERSITY OF HEALTH SCIENCES, priority 2012, dated 2018)
Values joined by “and” are separate entries in the source; they are usually repeats but may differ in a detail not shown here. Identical values can stand only once. Like-named read-outs stand apart in the source and are kept apart here.

Tested on: SkBr3-TxR cells
Assay: SRB cell viability assay, lapatinib-resistant SkBr3-TxR cells
Type: cell-based, human
Conditions: for viability at 0.001 µM / viability at 0.02 µM / viability at 0.067 µM / viability at 0.2 µM / viability at 0.67 µM / viability at 2 µM / viability at 6.7 µM / viability at 20 µM / IC50: Homo sapiens; for viability at 0.067 µM: Lapatinib 0.067 μM
Text: FIG. 13 summarizes the data of Tables 32-33 in a graphical format.
FIG. 14 summarizes the data of Tables 34 and 35 in a graphical format.

SMILES: CS(=O)(=O)CCNCc1ccc(-c2ccc3ncnc(Nc4ccc(OCc5cccc(F)c5)c(Cl)c4)c3c2)o1 [lapatinib]
- viability at 0.001 µM (Lapatinib 0.001 μM, 72 h, no LGT-E pre-treatment (control to Table 34)): 100%
- viability at 0.001 µM (Lapatinib 0.001 μM, 72 h, pre-treated with […] LGT-E): 100%
- viability at 0.001 µM (Lapatinib 0.001 μM, no chemosensitizing pre-treatment (Table 33)): 100%
- viability at 0.02 µM (Lapatinib 0.02 μM, 72 h, no LGT-E pre-treatment (control to Table 34)): 99.2%
- viability at 0.02 µM (Lapatinib 0.02 μM, 72 h, pre-treated with […] LGT-E): 97.2%
- viability at 0.02 µM (Lapatinib 0.02 μM, no chemosensitizing pre-treatment (Table 33)): 103%
- viability at 0.067 µM (72 h, no LGT-E pre-treatment (control to Table 34)): 96.2%
- viability at 0.067 µM (72 h, pre-treated with […] LGT-E): 92.6%
- viability at 0.067 µM (no chemosensitizing pre-treatment (Table 33)): 102%
- viability at 0.2 µM (Lapatinib 0.2 μM, 72 h, no LGT-E pre-treatment (control to Table 34)): 93.1%
- viability at 0.2 µM (Lapatinib 0.2 μM, 72 h, pre-treated with […] LGT-E): 90.3%
- viability at 0.2 µM (Lapatinib 0.2 μM, no chemosensitizing pre-treatment (Table 33)): 97.2%
- viability at 0.67 µM (Lapatinib 0.67 μM, 72 h, no LGT-E pre-treatment (control to Table 34)): 88.8%
- viability at 0.67 µM (Lapatinib 0.67 μM, 72 h, pre-treated with […] LGT-E): 75.9%
- viability at 0.67 µM (Lapatinib 0.67 μM, no chemosensitizing pre-treatment (Table 33)): 91.8%
- viability at 2 µM (Lapatinib 2 μM, 72 h, no LGT-E pre-treatment (control to Table 34)): 70.4%
- viability at 2 µM (Lapatinib 2 μM, 72 h, pre-treated with […] LGT-E): 60.9%
- viability at 2 µM (Lapatinib 2 μM, no chemosensitizing pre-treatment (Table 33)): 77.2%
- viability at 6.7 µM (Lapatinib 6.7 μM, 72 h, no LGT-E pre-treatment (control to Table 34)): 47.7%
- viability at 6.7 µM (Lapatinib 6.7 μM, 72 h, pre-treated with […] LGT-E): 34.9%
- viability at 6.7 µM (Lapatinib 6.7 μM, no chemosensitizing pre-treatment (Table 33)): 46.4%
- viability at 20 µM (Lapatinib 20 μM, 72 h, no LGT-E pre-treatment (control to Table 34)): 25.4%
- viability at 20 µM (Lapatinib 20 μM, 72 h, pre-treated with […] LGT-E): 18.3%
- viability at 20 µM (Lapatinib 20 μM, no chemosensitizing pre-treatment (Table 33)): 26.4%
- IC50 (read-out: IC50 of drug when cells pre-treated with Chemosensitizing Agent before drug treatment): 3.92 µM and 2.28 µg/mL
- IC50 (read-out: IC50 of drug when cells treated with drug only): 6.2 µM and 3.6 µg/mL
- mean A at 565 nm (Lapatinib 0.001 μM, 72 h, no LGT-E pre-treatment (control to Table 34), background = 0.044): 2.294
- mean A at 565 nm (Lapatinib 0.001 μM, no chemosensitizing pre-treatment (Table 33), background = 0.047): 2.298
- mean A at 565 nm (Lapatinib 0.02 μM, 72 h, no LGT-E pre-treatment (control to Table 34), background = 0.044): 2.276
- mean A at 565 nm (Lapatinib 0.02 μM, 72 h, pre-treated with […] LGT-E, background = 0.044): 2.151
- mean A at 565 nm (Lapatinib 0.02 μM, no chemosensitizing pre-treatment (Table 33), background = 0.047): 2.357
- mean A at 565 nm (Lapatinib 0.2 μM, 72 h, pre-treated with […] LGT-E, background = 0.044): 1.999
- mean A at 565 nm (Lapatinib 0.2 μM, no chemosensitizing pre-treatment (Table 33), background = 0.047): 2.234
- mean A at 565 nm (Lapatinib 0.67 μM, 72 h, no LGT-E pre-treatment (control to Table 34), background = 0.044): 2.038
- mean A at 565 nm (Lapatinib 2 μM, 72 h, no LGT-E pre-treatment (control to Table 34), background = 0.044): 1.614
- mean A at 565 nm (Lapatinib 2 μM, 72 h, pre-treated with […] LGT-E, background = 0.044): 1.348
- mean A at 565 nm (Lapatinib 2 μM, no chemosensitizing pre-treatment (Table 33), background = 0.047): 1.775
- mean A at 565 nm (Lapatinib 6.7 μM, 72 h, no LGT-E pre-treatment (control to Table 34), background = 0.044): 1.095
- mean A at 565 nm (Lapatinib 6.7 μM, 72 h, pre-treated with […] LGT-E, background = 0.044): 0.772
- mean A at 565 nm (Lapatinib 6.7 μM, no chemosensitizing pre-treatment (Table 33), background = 0.047): 1.066
- mean A at 565 nm (Lapatinib 20 μM, 72 h, no LGT-E pre-treatment (control to Table 34), background = 0.044): 0.584
- mean A at 565 nm (Lapatinib 20 μM, 72 h, pre-treated with […] LGT-E, background = 0.044): 0.406
- mean A at 565 nm (Lapatinib 20 μM, no chemosensitizing pre-treatment (Table 33), background = 0.047): 0.607
